Columns and labels:
NCI-H1650 cells [1] = assay: Soft agar assay; assay type: cell-based, human; conditions: NCI-H1650, erlotinib with or without IL-6 (10 ng/ML)
Procedure: Cells were plated in triplicate in 12-well plates at 5000 cells/well, mixed in RPMI-1640, 5% FBS and 0.35% agarose. Cells were cultured for 20 days in presence of the indicated treatment. Colonies were visualized by staining with tetrazolium salt (Schaeffer W. I., Friend K. (1976) Cancer Lett 1:259-262). The number of colonies were determined using the J-Image software (htpp://rsbweb.hih.gov/ij/) on Z-stack images (Z=1.5 mm) at 5× magnification. Each data point represents the average of 3 fields from 3 individual wells.
The numbers of cell colonies were countered after a suitable period of time. The number of colonies were determined using the J-image software on Z-stack images (Z=1.5.mm) at 5× magnification. […] See FIG. 3, Panel C (each point represents the average of 3 fields from individual wells). […] See FIG. 3, Panel D (each bar representing the average of 4 replicates).

phospho-STAT3 [2] = assay: Western blot for phospho-STAT3, parental cells; assay type: cell-based, human
Procedure: (§1) Adherent cells were washed with 1×PBS and whole cell lysate was extracted and western blot analysis was performed as previously described (Sordella et al. Science 305, 1163-1167; 2004). Antibodies against phosphor-EGFR (Tyr1068), total Akt, phospho-Akt (Ser473), total ERK 1/2, phospho-ERK 1/2 (Thr202/tyr204), phospho-STAT3 (Tyr705), cleaved PARP and phospho-MET (Tyr1234/Tyr1235) were purchased from Cell Signaling Technology (Danvers, Mass.). Total cMET and total EGFR antibodies were purchased from Santa Cruz Biotechnology (Santa Cruz, Calif.). The antibody against total STAT3 was purchased from BD Biosciences (San Jose, Calif.).
(§2) Cell extracts were analyzed by immunoblotting with antibodies specific to Tubulin, AKT, P-AKT, STAT3, and P-STAT3.

PC9 cells = assay: Sensitivity to erlotinib with IL-6, MTT assay; assay type: cell-based, human; conditions: PC9, 10 ng/ml IL-6 24 hours, then erlotinib at various concentrations 72 hours
P-AKT = assay: Western blot for P-AKT; assay type: cell-based, human
Procedure: as §1, with “Antibodies” for “Adherent cells were washed with 1×PBS and whole cell lysate was extracted and western blot analysis was performed as previously described (Sordella et al. Science 305, 1163-1167; 2004). Antibodies”
as §2

cleaved PARP = assay: Immunoblot for cleaved PARP (apoptosis); assay type: cell-based, human
Procedure: as §1
Cells not treated with the drug were used as a control. Cell extracts obtained after 72 hours were analyzed by immunoblotting for cleaved PARP (CL-PARP), an indicator of apoptosis status.

[3] = test system: NSCLC cell lines expressing mutant EGFR; assay: Cell proliferation upon stimulation with IL-6; assay type: cell-based, human; conditions: stimulation with IL-6 (10 ng/ml)
P-EGFR = assay: Western blot for P-EGFR, parental and resistant cells; assay type: cell-based, human; conditions: parental versus NCI-H1650 M3, erlotinib 0.01-10 μM, 3 hours
Excerpt: as §1, with “Antibodies” for “Adherent cells were washed with 1×PBS and whole cell lysate was extracted and western blot analysis was performed as previously described (Sordella et al. Science 305, 1163-1167; 2004). Antibodies”

NCI-H1650 = assay: Sensitivity to erlotinib, MTT assay; assay type: cell-based; conditions: Homo sapiens, read-out: IC50 to either gefitinib or erlotinib treatment; NCI-H1650, EGFR delE746-A750; 'typically displays'
IL-6 [4] = assay: IL-6 ELISA of cell media; assay type: cell-based, human; conditions: NCI-H1650 M3, in the presence of erlotinib 10 μM
Procedure: Cells were grown to approximately 80% confluency. Cells were washed with 1×PBS and fresh media was added. After 24 hours the supernatant was collected and analyzed for IL-6 using an ELISA kit (Diaclone, Canton, Mass.) following the manufacturers instruction.
The mRNA levels of various secreted proteins, including HGF, EGF, LIF, CNTF, IL-1A, IL-11, OSM and IL-6 (which are known to increase STAT3 phosphorylation), were examined by RT-PCR, the results normalized against beta-actin mRNA levels. No substantial levels of HGF were detected in either the parental-sensitive cells or in the resistant cells. Among these protein factors, a substantial increase in IL-6 mRNA levels was found in the resistant cells as compared to parental cells. This increase in IL-6 mRNA expression correlated with augmented levels of the protein secretion as determined by enzyme-linked immunosorbent assay (ELISA). See FIG. 2, Panel A; levels of IL-6 were measured by ELISA with each point representing the average of four data points.

NCI-H1650 M3 cells = assay: Sensitivity to erlotinib, MTT assay, erlotinib-resistant cells; assay type: cell-based, human
Procedure: Viability was measured by MTT assay relative to untreated cells, with each data point showing the average of four replicates.

phospho-STAT3 [5] = assay: Western blot for phospho-STAT3, NCI-H1650 M3 cells; assay type: cell-based, human
Procedure: as §1
To determine whether IL-6 was the autocrine factor responsible for promoting STAT3 phosphorylation in the erlotinib-resistant cells, the expression of IL-6 was inhibited using siRNA technology. Briefly, NCI-H 1650 M3 cells were transfected with siRNA targeting IL-6 (siRNA I and II) or a non-specific siRNA (siRNA III) using Lipofectamine 2000 at a final concentration of 30 nM siRNA. After 6 days cell extracts were analyzed by immunoblotting for phospho-STAT3, STAT3 and tubulin. […] Thus, an increased secretion of IL-6 was responsible for the observed STAT3 phosphorylation. […] Cell extracts were analyzed by immunoblot for phospho-STAT3 and total STAT3. […]

IL-6 [6] = assay: IL-6 immunostaining of tumor sections; assay type: in vivo, Nu/Nu mice; conditions: TPA-treated versus acetone-treated mice, topical
Procedure: Formalin-fixed, paraffin-embedded sections (4 μm) were stained for IL-6. Sections were de-embedded and rehydrated and epitope retrieval was performed by heating the sections in 0.01M citrate buffer at pH 6.0 in a microwave oven for 10 minutes. Endogenous peroxidase activity was blocked by treatment with 3% hydrogen peroxide in PBS for 10 minutes. After washing with PBS the blocking was performed using the Avidin/Biotin blocking kit (Vector laboratories, Cambridge, UK), Super Block (ID laboratories, London, CDN) and Mouse Block (ID laboratories, London, CDN). The sections were incubated with the primary antibody IL-6 (ab6672; Abcam, Cambridge, UK) in 1:300 dilution at 4° C. overnight. The IHC detection was done with the IDetect Super Stain System HRP (ID laboratories, London, CDN). […]
Protein expression was measured by defining regions of interest (ROI) using automated cell acquisition and quantification software for Immunohistochemistry (Histoquest™) and immunofluorescence (Tissuequest™).
Immunostaining of tumor sections using an anti-IL-6 antibody confirmed that TPA was able to augment IL-6 expression in the tumors. […] The levels of IL-6 in tumor matters were further measured by defining regions of interest (ROI) using automated cell acquisition and quantification software for immunohistochemistry (Histoquest™) or quantification software for immunofluorescence (Tissuequest™). […]

NCI-H1650 cells [7] = assay: Mouse xenograft model, tumor burden; assay type: in vivo, Nu/Nu mice; conditions: topical TPA 5 days, then erlotinib by oral gavage versus DMSO
Procedure: The in vivo mouse experiments were performed by inoculating subcutaneously 3×10^6 NCI-H1650 cells subcutaneously into each flank of immunodeficient Nu/Nu mice in Swiss CD 1 background (Charles River Breeding Laboratories, Wilmington, Mass.). After the tumors reached a volume of approximately 100 mm^3, mice were treated topically every 2 days with TPA (10 μL of 0.25 mg/mL solution in acetone) or with acetone for 5 days. […] Tumor volume was monitored with a digital caliper and calculated using the following formula: (length)×(width)^2/2.
IL-6 is a pleiotropic cytokine that exerts important biological functions in a wide variety of systems and processes (e.g., inflammation, acute-phase reaction, nervous and endocrine systems, bone metabolism, hematopoiesis). […] Cutaneous inflammation and secretion of IL-6 by topic treatment of the mouse epidermis with low dose of 12-O-tetradecanoyl-phorbol-13-acetate (TPA) every other day was induced in a Nu/nu mouse model (Vasunia et al. Carcinogenesis 1994, 15: 653). Acetone was used as a vehicle control. The Nu/nu mice were subsequently injected in the flank with NSCLC expressing mutant EGFR.
After 8 days, tumor burden was evaluated and the averages of four separate tumors were charted.

[8] = cells grown with or without IL-6, then erlotinib 4 hours, cell line not stated

IL-6: Recombinant Interleukin-6 (rhIL6) from R&D systems
cell resistance to erlotinib (number of colonies in soft agar) (NCI-H1650 cells [1]): significantly increased cell resistance to erlotinib
effect on erlotinib-mediated inhibition of STAT3 phosphorylation (phospho-STAT3 [2]; [8]): impaired inhibition of STAT3 phosphorylation
cell resistance to erlotinib (viability by MTT) (PC9 cells): increased PC9 cell resistance to erlotinib
effect on erlotinib-mediated inhibition of AKT activation (P-AKT; [8]): did not have any effect
CL-PARP levels in the drug treated cells (cleaved PARP; resistant cells grown with IL-6 24 hours, then erlotinib, 72 hours): decreased CL-PARP levels
cell proliferation [3]: No substantial changes

C#Cc1cccc(Nc2ncnc3cc(OCCOC)c(OCCOC)cc23)c1 [erlotinib, N-(3-ethynylphenyl)-6,7-bis(2-methoxyethoxy)quinazolin-4-amine]
EGFR phosphorylation levels upon erlotinib treatment (P-EGFR): comparable inhibition
IC50 (NCI-H1650): ~5 µM
phosphorylated STAT3 (phospho-STAT3 [2]; parental NCI-H1650 cells, high erlotinib concentrations, 3 hours): undetectable
IL-6 levels in the media (ELISA) (IL-6 [4]): did not change
levels of phosphorylation of AKT (P-AKT; parental versus NCI-H1650 M3, erlotinib treatment): similarly inhibited
cleavage of PARP upon erlotinib treatment (cleaved PARP; NCI-H1650 M3 compared to parental cells, erlotinib 10 μM, 24 hours): substantial decrease
level of CL-PARP in erlotinib-treated cells compared to control cells (cleaved PARP; resistant cells, extracts after 72 hours): significantly increased
erlotinib concentration in the presence of which the isolated cell line is capable of growing (NCI-H1650 M3 cells; NCI-H1650 M3, selected in constant high erlotinib): up to 30 μM
cell viability of NCI-H1650 M3 cells versus parental cells (NCI-H1650 M3 cells; erlotinib 0.3125-10 μM, 72 hours, particularly at high concentrations): much higher than that of the parental cells
STAT3 phosphorylation levels (phospho-STAT3 [5]; NCI-H1650 M3, erlotinib up to 10 μM, 3 hours): maintained high STAT3 phosphorylation levels

CCCCCCCCCCCCCC(=O)O[C@@H]1[C@@H](C)[C@@]2(O)[C@@H](C=C(CO)C[C@]3(O)C(=O)C(C)=C[C@@H]23)[C@@H]2C(C)(C)[C@]12OC(C)=O [TPA, 12-O-tetradecanoyl-phorbol-13-acetate]
IL-6 mean intensity in tumors (IL-6 [6]): much higher
tumor response to erlotinib treatment (tumor burden) (NCI-H1650 cells [7]): dramatically reduced

CC(C)(C)c1nc2c3ccc(F)cc3c3c(=O)[nH]ccc3c2[nH]1 [P6, 2-tert-butyl-9-fluoro-3,6-dihydro-7H-benz[h]-imidaz[4,5-f] isoquinoline-7-one]
cell viability upon erlotinib treatment (NCI-H1650 M3 cells; NCI-H1650 M3, P6 2 μM): significantly decreased
STAT3 phosphorylation levels (phospho-STAT3 [5]; NCI-H1650 M3, 2 μM, 2 days): decreased

From patent US7947653B1, “Methods for treating epidermal growth factor receptor tyrosine kinase inhibitor-resistant cancers” (Cold Spring Harbor Laboratory, priority 2009, dated 2011)
